Laboratory results: ChEMBL document CHEMBL1208731, “A novel, broad-spectrum anticancer compound containing the imidazo[4,5-e][1,3]diazepine ring system” (Bioorg Med Chem Lett, 2010)
Activity calls are given as the source filed them. No cut-off for these calls is given here.

Legend:
Format in all cases: functional, cell-based
[1] = system: PC-3; assay: Cytotoxicity against human PC3 cells after 72 hrs; settings: PC-3, 72 h
[2] = system: MCF7; assay: Cytotoxicity against human MCF7 cells after 72 hrs; settings: MCF7, 72 h
[3] = system: A549; assay: Cytotoxicity against human A549 cells after 72 hrs; settings: A549, 72 h
[4] = system: NCI-H460; assay: Cytotoxicity against human H460 cells after 72 hrs; settings: NCI-H460, 72 h
[5] = system: OVCAR-3; assay: Cytotoxicity against human OVCAR-3 cells after 72 hrs

## CCNc1nc(N)c2ncnc-2c(N)n1
[1]
  IC50: > 800 µM
[2]
  IC50: > 800 µM
[3]
  IC50: 38 µM
[4]
  IC50: 22 µM
[5]
  Activity: Active
